Our source for the Kd values is PMC3367765 (Pflugers Archiv, 2012).

One experiment deals with T1, Kvβ3 (Mus musculus, UniProt F6YMI4).
T1 sequence (F6YMI4 1-404): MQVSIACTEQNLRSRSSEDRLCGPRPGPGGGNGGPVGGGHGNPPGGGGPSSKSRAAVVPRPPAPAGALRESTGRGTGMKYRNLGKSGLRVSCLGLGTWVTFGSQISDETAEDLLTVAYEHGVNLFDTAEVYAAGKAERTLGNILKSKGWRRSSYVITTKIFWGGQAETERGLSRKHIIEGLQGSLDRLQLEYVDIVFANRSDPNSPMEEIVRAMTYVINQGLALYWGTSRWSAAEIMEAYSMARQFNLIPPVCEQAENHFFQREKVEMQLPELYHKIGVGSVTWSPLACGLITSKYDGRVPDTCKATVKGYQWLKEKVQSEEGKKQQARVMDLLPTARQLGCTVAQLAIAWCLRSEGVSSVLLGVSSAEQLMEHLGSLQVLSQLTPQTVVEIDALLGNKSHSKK
Put plainly: fluorescence titration. It is filed as binding.

Experiment [1] deals with T2, Kvβ2 (AKR part, amino acid residues 39-367) (UniProt P62483 39-367).
T2 sequence (looked up): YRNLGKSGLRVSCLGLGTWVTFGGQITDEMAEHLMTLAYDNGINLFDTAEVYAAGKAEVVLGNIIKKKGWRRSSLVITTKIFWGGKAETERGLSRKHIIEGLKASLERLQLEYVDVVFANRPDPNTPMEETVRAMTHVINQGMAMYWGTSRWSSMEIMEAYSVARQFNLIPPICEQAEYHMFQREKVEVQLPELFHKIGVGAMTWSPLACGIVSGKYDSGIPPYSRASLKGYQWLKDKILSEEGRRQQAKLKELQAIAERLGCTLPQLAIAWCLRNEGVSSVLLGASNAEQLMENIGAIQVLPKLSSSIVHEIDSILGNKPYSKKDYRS
In words: pull-down.

Experiment [2] deals with T2, Kvβ2 (AKR part, amino acid residues …). In words: pull-down. The source holds these as a separate data set.

Read-outs that look alike come from different tables or passages of the source.

As usually defined, the Kd is the equilibrium constant for the complex coming apart. With `NC(=O)C1=CN([C@@H]2O[C@H](COP(=O)(O)OP(=O)(O)OC[C@H]3O[C@@H](n4cnc5c(N)ncnc54)[C@H](OP(=O)(O)O)[C@@H]3O)[C@@H](O)[C@H]2O)C=CC1` [NADPH], the dissociation constant Kd at Kvβ3 turned out to be 5.6 ± 0.26 µM. In the case of `NC(=O)c1ccc[n+]([C@@H]2O[C@H](COP(=O)(O)OP(=O)(O)OC[C@H]3O[C@@H](n4cnc5c(N)ncnc54)[C@H](OP(=O)(O)O)[C@@H]3O)[C@@H](O)[C@H]2O)c1` [NADP^+], the dissociation constant (Kd) on Kvβ3 was 38 ± 9 µM.

B1: GST-C60 protein expressed from pDEST-26 vector (domain or fragment, rat, UniProt P19024 543-602, looked up)
chain: RKVSCSKASFCKTGGSLESSDSIRRGSCPLEKCHLKAKSNVDLRRSLYALCLDTSRETDL
On to B1, for which the Kd stood at 9.9 ± 1.7 µM in experiment [1] and 5.2 ± 0.8 µM in experiment [2].
